Assays:
[1] = system: established NTHI biofilms; conditions: antibiotic at concentrations ≥4-fold below the MIC; Brockson et al., 2014; cited from earlier work
NRel M. catarrhalis = conditions: Mokrzan et al., 2018; cited from earlier work
NTHI = test: Antibiotic sensitivity of biofilm-resident, planktonic or NRel NTHI; type: cell-based, Nontypeable Haemophilus influenzae strain 86-028NP; conditions: for sensitivity of biofilm-resident NTHI to killing: 16 h biofilm, same concentrations as for planktonic/NRel; for sensitivity of biofilm-resident NTHI to killing / killing of planktonic NTHI at the concentration chosen for the assay: 2 h antibiotic exposure; for sensitivity of anti-IHF NRel to killing, compared with planktonic NTHI / sensitivity of anti-IHF NRel to killing, compared with biofilm-resident NTHI: NRel collected after 15 min anti-IHF IgG, TMP-SMX 0.09/0.45 μg/ml, AMC 0.30/0.15 μg/ml; for sensitivity of anti-IHF NRel to killing, compared with planktonic NTHI: 2 h (FIG. 5d, 5e); for sensitivity of anti-IHF NRel to killing, compared with biofilm-resident NTHI / sensitivity of anti-rsPilA NRel to killing, compared with biofilm-resident NTHI: 2 h, P≤0.0001; for susceptibility of time-matched anti-IHF NRel to killing, compared with planktonic NTHI: NRel collected after 2 h anti-IHF IgG, TMP-SMX 0.94/4.7 μg/ml, AMC 2.5/1.25 μg/ml (FIG. 6c, 6d); for susceptibility of time-matched anti-rsPilA NRel to killing, compared with planktonic NTHI: NRel collected after 2 h anti-rsPilA IgG, TMP-SMX 0.09/0.45 μg per ml, AMC 0.3/0.15 μg per ml (FIG. 6a, 6b); for sensitivity of anti-rsPilA NRel to killing, compared with planktonic NTHI / sensitivity of anti-rsPilA NRel to killing, compared with biofilm-resident NTHI: NRel collected after 6 h anti-rsPilA IgG, TMP-SMX 0.94/4.7 μg per ml, AMC 2.5/1.25 μg per ml; for sensitivity of anti-rsPilA NRel to killing, compared with planktonic NTHI: 2 h (FIG. 5b, 5c); for killing of planktonic NTHI at the concentration chosen for the assay: mid-log planktonic NTHI density-matched to NRel
Procedure: To avoid excessive manipulation or dilution of NRel NTHI, and to permit direct comparison of equal numbers of planktonic and NRel, Applicant adjusted the planktonic cell density to the same CFU per ml as the NRel population in each experiment as follows: NTHI were incubated statically to mid log phase growth then diluted to either 3×10^8 CFU/ml for comparison with anti-rsPilA NRel collected at 6 h, or to 2×10^8 CFU/ml for comparison with anti-IHF NRel collected at 15 min (see FIG. 1). Applicant then determined the concentrations of amoxicillin (Sigma-Aldrich, St. Louis, MO) and clavulanate (U.S. Pharmacopeia, Rockville, MD), or of trimethoprim (Sigma-Aldrich) and sulfamethoxazole (Santa Cruz Biotech, Dallas, TX) that killed approximately 25% of planktonic NTHI at each density. The same antibiotic concentrations were used for the anti-IHF or anti-rsPilA NRel, the density-matched (same CFU/ml) planktonic NTHI, and the adherent biofilm for each relevant experiment. […] Applicant then assessed killing of anti-IHF or anti-rsPilA NRel by concentrations of amoxicillin plus clavulanic acid (“augmentin”, AMC) or trimethoprim plus sulfamethoxazole (TMP-SMX) that killed 25% of the planktonic NTHI at the same density.
Anti-rsPilA or anti-IHF NRel were collected and sonicated as described above. After sonication for 2 min in a water bath sonicator to break up any NTHI aggregates, NRel or planktonic NTHI were incubated with the indicated antibiotics at 37° C. for 2 h, then serially diluted and plated on chocolate agar to quantify viable NTHI. To assay biofilm-resident NTHI, biofilms were established for 16 h at 37° C. as described above, washed twice with DPBS and incubated in sBHI supplemented with the indicated antibiotics at 37° C. After 2 h, biofilm-resident NTHI were collected by forceful pipetting, sonicated for 2 min and enumerated as described above. All experiments were performed at least three times on separate days with two or three technical replicates for each treatment and control group.

NRel NTHI = conditions: Mokrzan et al., 2018; cited from earlier work

Row | Molecule | sensitivity to killing of NTHI biofilms co-exposed to anti-DNABII antiserum, compared to planktonic counterparts [1] | susceptibility of NRel M. catarrhalis released by anti-rsPilA, compared with growth on agar (NRel M. catarrhalis) | sensitivity of biofilm-resident NTHI to killing (NTHI) | sensitivity of anti-IHF NRel to killing, compared with planktonic NTHI (NTHI) | sensitivity of anti-IHF NRel to killing, compared with biofilm-resident NTHI (NTHI) | susceptibility of time-matched anti-IHF NRel to killing, compared with planktonic NTHI (NTHI) | susceptibility of time-matched anti-rsPilA NRel to killing, compared with planktonic NTHI (NTHI) | sensitivity of anti-rsPilA NRel to killing, compared with planktonic NTHI (NTHI) | sensitivity of anti-rsPilA NRel to killing, compared with biofilm-resident NTHI (NTHI) | killing of planktonic NTHI at the concentration chosen for the assay (NTHI) [%] | susceptibility of NRel NTHI released by anti-rsPilA, compared with growth on agar (NRel NTHI)
1 | CC1(C)S[C@@H]2[C@H](NC(=O)[C@H](N)c3ccccc3)C(=O)N2[C@H]1C(=O)O [ampicillin] | significantly more sensitive | – | – | – | – | – | – | – | – | – | –
2 | CC[C@H]1OC(=O)[C@H](C)[C@@H](O[C@H]2C[C@@](C)(OC)[C@@H](O)[C@H](C)O2)[C@H](C)[C@@H](O[C@@H]2O[C@H](C)C[C@H](N(C)C)[C@H]2O)[C@](C)(OC)C[C@@H](C)C(=O)[C@H](C)[C@@H](O)[C@]1(C)O [clarithromycin] | – | more susceptible | – | – | – | – | – | – | – | – | –
3 | amoxicillin plus clavulanic acid [AMC] | significantly more sensitive | – | minimal sensitivity | significantly more sensitive | significantly more sensitive | significantly more susceptible | equally susceptible | only equally as sensitive | significantly more sensitive | ~25 | –
4 | trimethoprim plus sulfamethoxazole [TMP-SMX] | – | – | minimal sensitivity | only equally as sensitive | significantly more sensitive | equally susceptible | significantly more susceptible | significantly greater | significantly more sensitive | ~25 | more susceptible
